Measured values published in US20080226682A1, “Immunoactive Compositions for Improved Oral Delivery of Vaccines and Therapeutic Agents” (PerOs Systems Technologies, Inc., priority 2007, published 2008).
Entries after “also recorded” stand apart in the source; their conditions may differ.

Columns and labels:
[1] = system: bovine immune cells; assay: Leukocyte mitogenic response (BrdU-based ELISA, stimulation index); type: cell-based; conditions: purified lectin at mitogen concentration (5-40 μg/mL), day 4
[2] = system: Mouse Splenocytes; assay: Immune cell proliferation, tetrazolium colorimetric reading (Stimulation Index); type: cell-based, BALB/c mice
[3] = system: Calf PBMC; assay: as above
[4] = system: human immune cells; assay: Leukocyte mitogenic response (BrdU-based ELISA, stimulation index); type: cell-based; conditions: purified lectin at mitogen concentration (5-40 μg/mL), day 4
[5] = system: Sheep PBMC; assay: Immune cell proliferation, tetrazolium colorimetric reading (Stimulation Index)
[6] = system: Chicken PBMC; assay: as above
[7] = system: feline immune cells; assay: Leukocyte mitogenic response (BrdU-based ELISA, stimulation index); type: cell-based; conditions: purified lectin at mitogen concentration (5-40 μg/mL), day 4
[8] = system: equine immune cells; assay: as above; type: cell-based; conditions: purified lectin at mitogen concentration (5-40 μg/mL), day 4
[9] = system: salmon immune cells; assay: as above; type: cell-based; conditions: purified lectin at mitogen concentration (5-40 μg/mL), day 4
[10] = system: Swine PBMC; assay: Immune cell proliferation, tetrazolium colorimetric reading (Stimulation Index)
[11] = system: Trout HK Cells; assay: as above; type: cell-based
[12] = system: swine immune cells; assay: Leukocyte mitogenic response (BrdU-based ELISA, stimulation index); type: cell-based; conditions: purified lectin at mitogen concentration (5-40 μg/mL), day 4
Source text: (§1) Lymphocytes are a representative immune system prototypic cell that may be used in in vitro assays for immunological effects of lectins, saponins and other components of natural plant or animal products. Exemplary lymphocytes for representative target species may be obtained and used in the Examples disclosed herein. The effects of various compositions on lymphocyte proliferation is examined using a standard tetrazolium based colorimetric assay (MTT). An Alamar blue-based colorimetric assay gave equivalent results to [^3H]-thymidine incorporation assay. The MTT colorimetric assay has also been used in lymphocyte proliferation assays using chicken splenocytes. These and other known assays may be utilized in the methods disclosed herein.
(§2) In one non-limiting example, cells from anterior fish kidney are obtained by forcing the aseptically removed tissue through a 100 μm cell strainer into L-15 medium supplemented with 2% fetal bovine serum (FBS), 100 U mL^−1 penicillin, 100 μg mL^−1 streptomycin, and 10 U mL^−1 sodium heparin (Processing medium, PM). The single-cell suspension is removed from the settled tissue fragments and cells are pelleted by centrifugation at 500×g for 10 min at 4° C. […]
(§3) The number of viable kidney or blood leukocytes isolated from each fish is determined by trypan blue exclusion (0.1% trypan blue in PM), and the cells are pelleted as described above.
(§4) Mitogen concentrations used to stimulate the isolated leukocytes are as follows: 10 μg mL^−1 SBA, 10 μg mL^−1 PHA-E or PHA-L, 5 μg mL^−1 LBL, 20 μg mL^−1 LCA or LOA, 10 μg mL^−1 ConA, 40 ug mL^−1 PSA and 5 μg mL^−1 PNA. […] The mitogenic response is measured on the fourth day of incubation post-mitogen stimulation using a BrdU-based ELISA at room temperature as described (Gauthier, D. T. 2003). Stimulation index (SI) values are calculated as the replicate mean optical density for a given set of mitogen-treated leukocytes divided by the replicate mean optical density of the associated mitogen free (control) leukocytes. […]

[13] = system: Feline PBMC; assay: Immune cell proliferation, tetrazolium colorimetric reading (Stimulation Index)
[14] = system: trout immune cells; assay: Leukocyte mitogenic response (BrdU-based ELISA, stimulation index); type: cell-based; conditions: purified lectin at mitogen concentration (5-40 μg/mL), day 4
Source text: as §1, §2, §3, §4

[15] = system: shrimp immune cells; assay: as above; type: cell-based; conditions: purified lectin at mitogen concentration (5-40 μg/mL), day 4
[16] = system: canine immune cells; assay: as above; type: cell-based; conditions: purified lectin at mitogen concentration (5-40 μg/mL), day 4

| Molecule | Immunomodulatory effect (stimulation index class) [1] | lowest concentration of lectins required for stimulation response above background [2] | lowest concentration of lectins required for stimulation response above background [3] [µg/mL] | Immunomodulatory effect (stimulation index class) [4] | lowest concentration of lectins required for stimulation response above background [5] [µg/mL] | lowest concentration of lectins required for stimulation response above background [6] | Immunomodulatory effect (stimulation index class) [7] | Immunomodulatory effect (stimulation index class) [8] | Immunomodulatory effect (stimulation index class) [9] | lowest concentration of lectins required for stimulation response above background [10] [µg/mL] | lowest concentration of lectins required for stimulation response above background [11] | Immunomodulatory effect (stimulation index class) [12] | lowest concentration of lectins required for stimulation response above background [13] [μg/ml ug/ml] | Immunomodulatory effect (stimulation index class) [14] | Immunomodulatory effect (stimulation index class) [15] | Immunomodulatory effect (stimulation index class) [16] |
| --- | --- | --- | --- | --- | --- | --- | --- | --- | --- | --- | --- | --- | --- | --- | --- | --- |
| SBA: Soybean (Glycine max) Lectin | + (between 1 and 4.9 is assigned a value of + (weak mitogen)) | Negative | 50 | ++ (between 5 and 9.9 is assigned a value of ++ (moderate mitogen)) | 50 | Negative | + (between 1 and 4.9 is assigned a value of + (weak mitogen)) | −− (<1 is assigned a value of −− (anti-mitogenic)) | +++ (≧10 is assigned a value of +++ (strong mitogen)) | 50 | refractory; also recorded: Negative | −− (<1 is assigned a value of −− (anti-mitogenic)) | 1 | – | – | – |
| PNA: peanut (Arachis hypogaea) lectin (protein, UniProt P02872 24-273, looked up) Galactose-binding lectin: AETVSFNFNSFSEGNPAINFQGDVTVLSNGNIQLTNLNKVNSVGRVLYAMPVRIWSSATGNVASFLTSFSFEMKDIKDYDPADGIIFFIAPEDTQIPAGSIGGGTLGVSDTKGAGHFVGVEFDTYSNSEYNDPPTDHVGIDVNSVDSVKTVPWNSVSGAVVKVTVIYDSSTKTLSVAVTNDNGDITTIAQVVDLKAKLPERVKFGFSASGSLGGRQIHLIRSWSFTSTLITTTRRSIDNNEKKIMNMASA | + (between 1 and 4.9 is assigned a value of + (weak mitogen)) | – | – | + (between 1 and 4.9 is assigned a value of + (weak mitogen)) | – | – | +++ (≧10 is assigned a value of +++ (strong mitogen)) | ++ (between 5 and 9.9 is assigned a value of ++ (moderate mitogen)) | +++ (≧10 is assigned a value of +++ (strong mitogen)) | – | – | – | – | −− (<1 is assigned a value of −− (anti-mitogenic)) | −− (<1 is assigned a value of −− (anti-mitogenic)) | ++ (between 5 and 9.9 is assigned a value of ++ (moderate mitogen)) |
